Columns and labels:
[1] = test system: HCT-116 (colorectal cancer); assay: MTT cytotoxicity/selectivity, HCT-116; type: cell-based; conditions: vs normal oral fibroblasts
Method: (§1) Human SCC-4, SCC-9, and SCC-25 cells, derived from a human oral tongue SCC (squamous cell carcinoma), were obtained from ATCC (CRL-1624, CRL-1629, and CRL-1628, respectively) and maintained in 1:1 DMEM/F12 (Dulbecco’s modified Eagle’s medium and Ham’s F12 medium; Gibco (Thermo Fisher, Waltham, MA, USA)) supplemented with 10% (v/v) FBS (fetal bovine serum; Invitrogen, Thermo Fisher, Waltham, MA, USA) and 400 ng/mL hydrocortisone (Sigma-Aldrich Corporation, St. Louis, MO, USA). B16-F10 (melanoma; CRL-6475), HCT-116 (colorectal cancer; CCL-247), and HepG2 (liver cancer; HB-8065), in addition to primary normal human gingival fibroblasts obtained from ATCC (PCS-201-018), were maintained in DMEM supplemented with 10% (v/v) of FBS and were used in a maximum of six passages. Cells were grown in a humidified environment containing 5% CO2 at 37 °C. For all biological assays, compounds and shikonin were solubilized in 100% DMSO (all Sigma-Aldrich Corp.) to a final concentration of 10 mM and lapachol in ethanol. The carboplatin control was prepared in water (Fauldcarbo; Libbs Farmacêutica, São Paulo, SP, Brazil) and was used as a standard anticancer compound.
(§2) The viability of OSCC cell lines and primary human fibroblast cells was assessed using the MTT assay as in ref . Briefly, cells were grown in triplicate in 96-well plates (5 × 10^3 cells/well) until confluence. Then, the medium was removed, fresh medium was added, and the cells were returned to the incubator in the presence of different compounds. […] Then, the wells containing the cells were washed with PBS heated to 37 °C, the formazan crystals were dissolved in a solvent solution (DMSO/methanol 1:1 v/v), and the absorbance was read at 560 nm using an EPOCH microplate spectrophotometer (BioTek Instruments, Winooski, VT, USA) with the background absorbance at 670 nm subtracted. […]
(§3) Data are presented as means ± SD. […] The selectivity index was calculated as SI = IC50 of the compound in normal oral fibroblast cells/IC50 of the same compound for each oral cancer cell line (SCC-4, SCC-9, and SCC-25) and averaged when indicated.

[2] = test system: primary normal human gingival fibroblasts; assay: MTT cell viability assay, primary gingival fibroblasts; type: cell-based; conditions: Homo sapiens, Fibroblast; 72 h, MTT; read-out: IC50 primary gingival fibroblast
Method: as §1
(§4) The viability of OSCC cell lines and primary human fibroblast cells was assessed using the MTT assay as in ref . Briefly, cells were grown in triplicate in 96-well plates (5 × 10^3 cells/well) until confluence. Then, the medium was removed, fresh medium was added, and the cells were returned to the incubator in the presence of different compounds. DMSO at the same concentration was used as a control for 100% cell viability. After 72 h, cells were incubated with 0.5 mg/mL of MTT reagent (3-(4,5-dimethyl-2-thiazolyl)-2,5-diphenyl-2-H-tetrazolium bromide) (Sigma-Aldrich Corporation, Louis, MO, USA) for 3.5 h. Then, the wells containing the cells were washed with PBS heated to 37 °C, the formazan crystals were dissolved in a solvent solution (DMSO/methanol 1:1 v/v), and the absorbance was read at 560 nm using an EPOCH microplate spectrophotometer (BioTek Instruments, Winooski, VT, USA) with the background absorbance at 670 nm subtracted. Control chemotherapeutics (carboplatin and shikonin) were used.
(§5) Data are presented as means ± SD. IC50 values for the MTT assays were obtained by nonlinear regression using the […] 8.4.3.0 program (Intuitive Software for Science, San Diego, CA, USA) from at least three independent experiments. A dose–response curve (inhibitor) vs response using the least-squares method was used to determine the IC50, SD, and R2 of the data. The selectivity index was calculated as SI = IC50 of the compound in normal oral fibroblast cells/IC50 of the same compound for each oral cancer cell line (SCC-4, SCC-9, and SCC-25) and averaged when indicated.

SCC-25 cells = assay: MTT cell viability assay, SCC-25; type: cell-based, human; conditions: for IC50: Homo sapiens, SCC-25, 72 h, MTT, read-out: IC50 SCC-25; for selective index (SI) SCC-25: vs normal oral fibroblasts
Method: as §1, §4, §5

B16-F10 (melanoma) = assay: MTT cytotoxicity/selectivity, B16-F10; type: cell-based; conditions: vs normal oral fibroblasts
Method: as §1, §2, §3

SCC-4 cells = assay: MTT cell viability assay, SCC-4; type: cell-based, human; conditions: for IC50: Homo sapiens, SCC-4, 72 h, MTT, read-out: IC50 SCC-4; for selective index (SI) SCC-4: vs normal oral fibroblasts
Method: as §1, §4, §5

Hemolysis assay = type: cell-based, human; conditions: human, human erythrocytes, Triton X-100 positive control, read-out: % Hemolysis (Mean ± SD)
Method: To determine the surfactant power of the substances present in biological membranes, a hemolysis test was carried out with human blood approved by the Research Ethics Committee of the Universidade Federal Fluminense (CAAE: 43134721.4.0000.5626). Erythrocytes were collected for centrifugation at 1500 rpm for 15 min, washed with PBS (phosphate-buffered saline) supplemented with 10 mM glucose, and counted in an automatic cell counter (Thermo Fisher, Waltham, MA, USA). […] In total, 10 μL of PBS was used as a negative control, and 10 μL of PBS with 0.1% Triton x 100 was used as a positive control. Data reading was performed with EPOCH (BioTek Instruments, Winooski, VT, USA) at an absorbance of 540 nm, and statistical data were generated using […] Prism 8.4.3.0 program (Intuitive Software for Science, San Diego, CA, USA).

SCC-9 cells = assay: Reactive oxygen species production (ROS-Glo H2O2); type: cell-based, human; conditions: 2 × IC50, 24, 48 and 72 h, menadione positive control
Method: The assay was performed in SCC-9 cells as previously described. […] Menadione (M9529, Sigma-Aldrich Corporation, San Luis, Mo., USA), at a concentration of 20 μM, served as a positive control, while DMSO, at equivalent concentrations to the test substances, served as the negative control. Cells were then incubated at 37 °C with 5% CO2 for the indicated time, and ROS was measured by ROS-Glo H2O2 Assay G8820 (Promega Corporation, Madison, WI 53711 USA) as indicated by the vendor. The luminescence signal was measured using a luminescence detector, Luminometer TD-20/20 (Turner Designs Instrument, Sunnyvale, CA, USA).

C57BL/6 mice = assay: In vivo acute toxicity study; conditions: single intraperitoneal dose 100, 200 and 400 mg/kg, 14 days
Method: . All experiments were carried out in accordance with Brazilian guidelines and regulations. Dosing and analysis were performed in accordance with 423 OECD guidelines and reviewed by. Each group of animals had n = 3 and received only one intraperitoneal injection (Day 0) of compounds 7a and 7e dissolved in […] of PBS and 3% DMSO. Animals in the control group received only 3% DMSO in PBS. The first dose of the compound was 100 mg/kg. Subsequent dose levels (200 mg/kg and 400 mg/kg) were determined based on the result obtained from the previous dose. Animals were examined daily, twice a day, for mortality and morbidity for 14 days, when all animals were anesthetized (ketamine 100 mg/kg and xylazine 10 mg/kg) followed by cervical dislocation. Macroscopic necropsy of the main organs was performed. The animals’ body weight and average food consumption were measured every 7 days. As an indicator of morbidity, the following signs were evaluated: tremors, seizure, salivation, diarrhea, and lethargy, along with the signs of pain, increased back arching, and mobility disability. The necropsy included examination of the external characteristics of the carcass; external orifices of the body; the abdominal, thoracic, and cranial cavities; and organs/tissues of the liver, thymus, right kidney, right testicle, heart, and lung.

| Structure (SMILES) | selective index (SI) HCT-116 colon cancer [1] | IC50 [2] | IC50 (SCC-25 cells) | selective index (SI) SCC-25 (SCC-25 cells) | selective index (SI) B16-F10 melanoma (B16-F10 (melanoma)) | IC50 (SCC-4 cells) | selective index (SI) SCC-4 (SCC-4 cells) | hemolysis at 500 µM (Hemolysis assay) | ROS production (SCC-9 cells) | abdominal cavity and macroscopic organs at necropsy (C57BL/6 mice) | body weight and food consumption vs control animals (C57BL/6 mice) |
| --- | --- | --- | --- | --- | --- | --- | --- | --- | --- | --- | --- |
| CC1(C)OC2=C(C(=O)c3ccccc3C2=O)C(Sc2ccccc2)C1Sc1ccccc1 (stereo not shown) [7a, 2,2-Dimethyl-3,4-bis(phenylthio)-3,4-dihydro-2H-benzo[g]chromene-5,10-dione] | 2.7 | 57.3 µM | 28.2 µM | 2.0 | 1.4 | 10.6 µM | 5.4 | < 2% | induced the generation of ROS | no morphological changes or lesions | no significant difference |
| COc1ccc(SC2C3=C(OC(C)(C)C2Sc2ccc(OC)cc2)C(=O)c2ccccc2C3=O)cc1 (stereo not shown) [7e, 3,4-Bis((4-methoxyphenyl)thio)-2,2-dimethyl-3,4-dihydro-2H-benzo[g]chromene-5,10-dione] | 9.1 | 110 µM | 13 µM | 8.5 | 7.5 | 57.1 µM | 1.9 | < 2% | induced the generation of ROS | no morphological changes or lesions | no significant difference |
